# What was measured:
# Format in all cases: cell-based
# J774.1 [1] = assay: Inhibition of nitric oxides synthase in mouse J774.1 cells assessed as inhibition of LPS-induced NO release at 100 ug/mL after 48 hrs by Griess assay relative to control
# [2] = Cytotoxicity against mouse J774.1 cells assessed as cell viability after 48 hrs by MTT assay; conditions: read-out: Activity
# J774.1 [3] = assay: Inhibition of nitric oxides synthase in mouse J774.1 cells assessed as inhibition of LPS-induced NO release at 1 ug/mL after 48 hrs by Griess assay relative to control
SMILES,inhibition (J774.1 [1]),viability at 48 h [2],inhibition (J774.1 [3])
C[C@H]1O[C@H](O[C@@H]2[C@@H](O)[C@H](OCCc3ccc(O)c(O)c3)O[C@H](CO[C@H]3O[C@@H](CO)[C@H](O)[C@@H](O)[C@@H]3O)[C@H]2OC(=O)/C=C/c2ccc(O)c(O)c2)[C@@H](O)[C@@H](O)[C@@H]1O,10.4%,–,–
COc1cc(/C=C/CO)cc(OC)c1O[C@@H]1O[C@H](CO)[C@@H](O[C@@H]2O[C@H](CO)[C@@H](O)[C@H](O)[C@H]2O)[C@H](O)[C@H]1O,22.3%,–,–
COc1cc(/C=C/CO)cc(OC)c1O[C@@H]1O[C@H](CO)[C@@H](O)[C@H](O)[C@H]1O,12.3%,–,–
C=C1C(=O)O[C@@H]2/C=C(\C)CC/C=C(\C)CC[C@@H]12 [COSTUNOLIDE],94.6%,92%,50.3%
